According to paper PMC5118987 (Antimicrobial Agents and Chemotherapy, 2016):

Assays:
[1] = test system: HIV-1 clinical isolates; assay: Antiviral assay against HIV-1 clinical isolates in fresh human PBMCs (RT endpoint)
[2] = test system: HIV-1 BaL; assay: Antiviral assay in monocyte-derived macrophages (p24 ELISA); settings: Human immunodeficiency virus 1, BAL, Macrophage
Text: (§1) Freshly isolated human peripheral blood mononuclear cells (PBMCs) were obtained from healthy volunteers (supplied by AllCells, Inc., Alameda, CA). Blood donors were negative for HIV-1, hepatitis B, and hepatitis C viral infections. CD4^+ T lymphocytes were isolated by negative selection using a magnetically labeled antibody cocktail ([sequence] Technologies Inc., Vancouver, Canada) and cultured in RPMI cell culture media (Life Technologies, Grand Island, NY) supplemented with 10% FBS. CD4^+ T cells were activated for 48 h at 37°C by addition of 1 μg/ml phytohemagglutinin (PHA; Sigma, St. Louis, MO) and 5 ng/ml interleukin-2 (IL-2; Roche Diagnostics, Indianapolis, IN).
(§2) A 3-fold serial dilution of test compounds in RPMI medium was added to triplicate wells and incubated at 37°C for 5 days. Human monocytes were seeded on 96-well plates at a density of 3 × 10^5 cells per well, differentiated into adherent macrophages, and then infected with HIV-1 BaL virus in 50 μl RPMI for 3 h at 37°C. […] The supernatants derived from the CD4^+ T-cell and macrophage cultures were harvested 6 and 12 days postinfection, respectively, and the amount of HIV present was quantified by p24 enzyme-linked immunosorbent assay (ELISA) (PerkinElmer, Waltham, MA).

[3] = via inhibition of OCT2 in proximal tubule; cited from earlier work
[4] = test system: organic cation transporter 2 (OCT2); settings: read-out: IC50 inhibition of organic cation transporter 2 (OCT2); cited from earlier work
[5] = test system: NRTI-, NNRTI- and PI-Resistant HIV-1 Mutants; assay: Antiviral activity against NRTI-, NNRTI- and PI-resistant HIV-1 mutants; type: cell-based; settings: Human immunodeficiency virus 1; WT, Table S7
[6] = test system: HIV-1 IIIb; assay: HIV breakthrough selection in MT-2 cells; settings: MT-2, HIV-1 IIIb; FTC 4× EC95, EVG 5× EC95, BIC and DTG 2.5× and 5× EC95; up to day 32
[7] = in vitro; settings: human, CC50 in Primary Human Hepatocytes
[8] = test system: HIV-1 BaL; assay: Antiviral assay in primary CD4+ T lymphocytes (p24 ELISA); settings: Human immunodeficiency virus 1, BAL
Text: as §1, §2

[9] = test system: HIV-1 IIIb
Experimental: Each compound series was prepared several times independently in quadruplicate to capture the variations in Hill slope associated with preparation of compound serial dilutions. The assay was performed in a 384-well format. MT-4 cells were infected in bulk at the same MOI as that described above, and the plates were developed with CellTiter-Glo reagent 5 days postinfection.

[10] = test system: Influenza B/LEE/40; assay: microbe, parasite or virus in culture; type: cell-based; settings: NHBE
[11] = Cytotoxicity assay in MT-2 cells; type: cell-based; settings: human, uninfected MT-2 cells
Experimental: For the antiviral assay utilizing MT-2 and MT-4 cells, 50 μl of a 2× test concentration of 5-fold serially diluted compound in culture medium with 10% FBS was added to each well of a 96-well plate (9 concentrations) in triplicate. MT-2 and MT-4 cells were infected with HIV-1 IIIb at a multiplicity of infection (MOI) of 0.01 for 3 h. Fifty microliters of infected cell suspension in culture medium with 10% FBS (∼1.5 × 10^4 cells) then was added to each well containing 50 μl of diluted compound. The plates were then incubated at 37°C for 5 days. After 5 days of incubation, 100 μl of CellTiter-Glo reagent (Promega Biosciences, Inc., Madison, WI) was added to each well containing MT-2 or MT-4 cells. Cell lysis was carried out by incubation at room temperature for 10 min and chemiluminescence was read. For compound cytotoxicity assessment, the protocol was identical except that uninfected cells were used and compounds were serially diluted 3-fold.

[12] = test system: HIV-1 patient-derived isolates with INSTI resistance mutations; assay: PhenoSense IN assay, 47 patient-derived isolates; type: cell-based
Experimental: Forty-seven resistance test vectors containing patient-derived IN coding regions were constructed using standard Monogram Biosciences protocols. […] The fold change from the NL4-3 wild-type reference vector values was determined. Statistical significance was determined using the Student two-tailed t test.

C[C@@H]1CCO[C@H]2Cn3cc(C(=O)NCc4ccc(F)cc4F)c(=O)c(O)c3C(=O)N12 [DTG, Dolutegravir]
EC50 ([1]; Human immunodeficiency virus 1, BAL, PBMC, HIV-1 subtype B isolate BaL, human PBMCs): 0.32 ± 0.11 nM
EC50 ([1]; Human immunodeficiency virus 1, PBMC, HIV-1 subtype A isolate 92RW016, human PBMCs): 0.34 ± 0.09 nM
EC50 ([1]; Human immunodeficiency virus 1, PBMC, HIV-1 subtype A isolate 92UG037, human PBMCs): 0.66 ± 0.05 nM
EC50 ([1]; Human immunodeficiency virus 1, PBMC, HIV-1 subtype B isolate 89BZ_167, human PBMCs): 1.4 ± 0.4 nM
EC50 ([1]; Human immunodeficiency virus 1, PBMC, HIV-1 subtype B isolate 91US001, human PBMCs): 0.8 ± 0.48 nM
EC50 ([1]; Human immunodeficiency virus 1, PBMC, HIV-1 subtype B isolate 91US004, human PBMCs): 1 ± 0.4 nM
EC50 ([1]; Human immunodeficiency virus 1, PBMC, HIV-1 subtype C isolate 93IN905, human PBMCs): 0.17 ± 0.03 nM
EC50 ([1]; Human immunodeficiency virus 1, PBMC, HIV-1 subtype C isolate 98US_MSC5016, human PBMCs): 0.75 ± 0.09 nM
EC50 ([1]; Human immunodeficiency virus 1, PBMC, HIV-1 subtype D isolate 98UG_57128, human PBMCs): 0.32 ± 0.48 nM
EC50 ([1]; Human immunodeficiency virus 1, PBMC, HIV-1 subtype E isolate 96TH_M02138, human PBMCs): 0.11 ± 0.01 nM
EC50 ([1]; Human immunodeficiency virus 1, PBMC, HIV-1 subtype E isolate 96TH_NI1046, human PBMCs): 0.25 ± 0.08 nM
EC50 ([1]; Human immunodeficiency virus 1, PBMC, HIV-1 subtype F isolate 93BR020, human PBMCs): 0.4 ± 0.19 nM
EC50 [2]: 3.1 ± 2.5 nM
increase of human serum creatinine levels [3]: about 10%
IC50 [4]: 1930 nM
EC50 [5]: 1.6 ± 0.5 nM
day postinfection of HIV-1 breakthrough [6]: no virus breakthrough was observed
CC50 ([7]; Donor 1): > 100000 nM
CC50 ([7]; Donor 2): > 100000 nM
EC50 [8]: 1 ± 0.3 nM
PAEC95 (protein binding-adjusted EC95) ([9]; EC95 in MT-4 with human serum shift): 204 nM
EC95 ([9]; MT-4 cells, calculated using Hill slope): 7.4 nM
EC50 [10]: 15100 nM
CC50 at 5 days [11]: 5350 nM

Cc1nnc(C(=O)NC(C)(C)c2nc(C(=O)NCc3ccc(F)cc3)c(O)c(=O)n2C)o1 [RAL, raltegravir]
% of Isolates (Fold-Change vs. WT) (2.5 to <5) ([12]; 47 patient-derived isolates): 4%
% of Isolates (Fold-Change vs. WT) (5 to <10) ([12]; 47 patient-derived isolates): 4%
% of Isolates (Fold-Change vs. WT) (≤2.5) ([12]; 47 patient-derived isolates): 2%
% of Isolates (Fold-Change vs. WT) (≥10) ([12]; 47 patient-derived isolates): 89%
Fold-Change vs. WT Mean ([12]; 47 patient-derived isolates): > 100 fold change
Fold-Change vs. WT Median ([12]; 47 patient-derived isolates): > 143 fold change
Susceptibility (Fold-change vs. WT) ([12]; isolate entry 1: L74M,T97A): 8.48 fold-change
Susceptibility (Fold-change vs. WT) ([12]; isolate entry 2: L68V,Y143C): 4.06 fold-change
Susceptibility (Fold-change vs. WT) ([12]; isolate entry 3: L68L/V,L74M,Y143R): > 143 fold-change
Susceptibility (Fold-change vs. WT) ([12]; isolate entry 4: T97A): 1.78 fold-change
Susceptibility (Fold-change vs. WT) ([12]; isolate entry 5: T97A,F121Y): 112 fold-change
Susceptibility (Fold-change vs. WT) ([12]; isolate entry 6: T97A,Y143R): > 143 fold-change
Susceptibility (Fold-change vs. WT) ([12]; isolate entry 7: F121Y): 12 fold-change
Susceptibility (Fold-change vs. WT) ([12]; isolate entry 8: L74M,N155H): 89 fold-change
Susceptibility (Fold-change vs. WT) ([12]; isolate entry 9: T97A,N155H): 53 fold-change
Susceptibility (Fold-change vs. WT) ([12]; isolate entry 10: T97A,Y143C): > 143 fold-change
Susceptibility (Fold-change vs. WT) ([12]; isolate entry 11: E92Q,E157E/Q): 4.8 fold-change
Susceptibility (Fold-change vs. WT) ([12]; isolate entry 12: E92Q): 18 fold-change
Susceptibility (Fold-change vs. WT) ([12]; isolate entry 13: N155H,E157E/Q): 19 fold-change
Susceptibility (Fold-change vs. WT) ([12]; isolate entry 14: E92Q): 6.7 fold-change
Susceptibility (Fold-change vs. WT) ([12]; isolate entry 15: Y143R): 22 fold-change
Susceptibility (Fold-change vs. WT) ([12]; isolate entry 16: Y143R): 16 fold-change
Susceptibility (Fold-change vs. WT) ([12]; isolate entry 17: N155H): 107 fold-change
Susceptibility (Fold-change vs. WT) ([12]; isolate entry 18: Y143C): 14 fold-change
Susceptibility (Fold-change vs. WT) ([12]; isolate entry 19: T97A,Y143C): > 143 fold-change
Susceptibility (Fold-change vs. WT) ([12]; isolate entry 20: Q148R,E138A): 43 fold-change
Susceptibility (Fold-change vs. WT) ([12]; isolate entry 21: N155H,G163R): 15 fold-change
Susceptibility (Fold-change vs. WT) ([12]; isolate entry 22: E92Q,N155H): > 143 fold-change
Susceptibility (Fold-change vs. WT) ([12]; isolate entry 23: E138K,Q148R): 54 fold-change
Susceptibility (Fold-change vs. WT) ([12]; isolate entry 24: G140S,Q148H): > 143 fold-change
Susceptibility (Fold-change vs. WT) ([12]; isolate entry 25: E92Q,N155H,G163R): > 143 fold-change
Susceptibility (Fold-change vs. WT) ([12]; isolate entry 26: G140A,Q148R): 88 fold-change
Susceptibility (Fold-change vs. WT) ([12]; isolate entry 27: G140S,Q148H): > 143 fold-change
Susceptibility (Fold-change vs. WT) ([12]; isolate entry 28: G140S,Q148H): > 143 fold-change
Susceptibility (Fold-change vs. WT) ([12]; isolate entry 29: G140S, Q148H): > 143 fold-change
Susceptibility (Fold-change vs. WT) ([12]; isolate entry 30: E138K,G140S,Q148H): > 143 fold-change
Susceptibility (Fold-change vs. WT) ([12]; isolate entry 31: G140S,Q148H): > 143 fold-change
Susceptibility (Fold-change vs. WT) ([12]; isolate entry 32: G140S,Q148H, G163K): > 143 fold-change
Susceptibility (Fold-change vs. WT) ([12]; isolate entry 33: G140S,Q148H): > 143 fold-change
Susceptibility (Fold-change vs. WT) ([12]; isolate entry 34: E138K,G140S,Q148H): > 143 fold-change
Susceptibility (Fold-change vs. WT) ([12]; isolate entry 35: E138K G140S Q148H): > 114 fold-change
Susceptibility (Fold-change vs. WT) ([12]; isolate entry 36: G140S,Q148H): > 143 fold-change
Susceptibility (Fold-change vs. WT) ([12]; isolate entry 37: G140S,Q148R): > 143 fold-change
Susceptibility (Fold-change vs. WT) ([12]; isolate entry 38: G140S,Q148H): > 143 fold-change
Susceptibility (Fold-change vs. WT) ([12]; isolate entry 39: G140S,Q148H): > 143 fold-change
Susceptibility (Fold-change vs. WT) ([12]; isolate entry 40: T97A,G140S,Q148H): > 143 fold-change
Susceptibility (Fold-change vs. WT) ([12]; isolate entry 41: E138K,G140C,Q148R): > 143 fold-change
Susceptibility (Fold-change vs. WT) ([12]; isolate entry 42: L74L/M,G140A,Q148R): > 143 fold-change
Susceptibility (Fold-change vs. WT) ([12]; isolate entry 43: G140S,Q148R): > 143 fold-change
Susceptibility (Fold-change vs. WT) ([12]; isolate entry 44: G140S,Q148H,E138A): > 143 fold-change
Susceptibility (Fold-change vs. WT) ([12]; isolate entry 45: T97A,G140S,Q148H): > 143 fold-change
Susceptibility (Fold-change vs. WT) ([12]; isolate entry 46: L74M,G140C,Q148R): > 143 fold-change
Susceptibility (Fold-change vs. WT) ([12]; isolate entry 47: E138K,G140A,Q148K): > 143 fold-change
